Measurements reported in PMC8267671, “Midazolam’s Effects on Delayed-Rectifier K^+ Current and Intermediate-Conductance Ca^2+-Activated K^+ Channel in Jurkat T-lymphocytes” (International Journal of Molecular Sciences, 2021).

Columns and labels:
Format in all cases: cell-based
IKCa channel (KCa3.1) [1] = biological target: T1, IKCa channel (KCa3.1) (Homo sapiens, UniProt O15554); test: cell-attached single-channel recording; […] DCEBIO raised open probability in presence of MDZ
T1 construct: gene KCNN4; native channel in Jurkat T-lymphocytes

[2] = biological target: T2, KV1.3 (delayed-rectifier K+ channel, IK(DR)) (Homo sapiens, UniProt P22001); test: whole-cell patch clamp of native IK(DR), concentration-response (kinetic KD […])
T2 construct: gene KCNA3; native channel in Jurkat T-lymphocytes

IKCa channel (KCa3.1) [3] = biological target: T1, IKCa channel (KCa3.1); test: cell-attached single-channel recording; open probability decreased at […]; conditions: read-out: % decrease of open probability at 30 μM

T1 sequence (O15554 whole entry): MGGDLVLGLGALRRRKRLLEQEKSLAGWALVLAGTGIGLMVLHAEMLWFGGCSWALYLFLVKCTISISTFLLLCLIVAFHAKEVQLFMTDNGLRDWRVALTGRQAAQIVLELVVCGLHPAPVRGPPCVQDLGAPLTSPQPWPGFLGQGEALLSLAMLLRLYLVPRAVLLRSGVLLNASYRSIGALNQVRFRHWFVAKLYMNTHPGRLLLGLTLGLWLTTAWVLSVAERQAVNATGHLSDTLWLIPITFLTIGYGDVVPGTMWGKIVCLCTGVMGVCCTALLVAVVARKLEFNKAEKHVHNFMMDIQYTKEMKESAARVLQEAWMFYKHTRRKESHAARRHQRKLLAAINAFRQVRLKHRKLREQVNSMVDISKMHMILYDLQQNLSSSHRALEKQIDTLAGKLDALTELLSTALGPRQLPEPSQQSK
T2 sequence (P22001 whole entry): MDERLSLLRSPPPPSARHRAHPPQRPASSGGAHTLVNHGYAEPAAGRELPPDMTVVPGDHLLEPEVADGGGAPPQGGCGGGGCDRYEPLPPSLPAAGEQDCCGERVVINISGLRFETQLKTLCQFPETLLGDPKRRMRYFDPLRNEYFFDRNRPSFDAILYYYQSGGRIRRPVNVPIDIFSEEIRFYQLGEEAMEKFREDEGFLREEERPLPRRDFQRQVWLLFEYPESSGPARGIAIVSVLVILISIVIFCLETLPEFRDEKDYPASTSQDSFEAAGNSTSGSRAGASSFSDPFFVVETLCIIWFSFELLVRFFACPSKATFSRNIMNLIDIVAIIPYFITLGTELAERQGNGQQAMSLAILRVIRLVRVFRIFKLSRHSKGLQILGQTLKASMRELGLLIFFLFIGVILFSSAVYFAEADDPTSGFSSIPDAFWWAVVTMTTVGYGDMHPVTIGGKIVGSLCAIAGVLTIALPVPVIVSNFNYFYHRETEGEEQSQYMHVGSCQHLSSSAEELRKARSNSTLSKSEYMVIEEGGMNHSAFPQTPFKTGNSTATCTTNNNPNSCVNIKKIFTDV

Row | Compound | cell-attached single-channel recording; 3 μM DCEBIO raised open probability in p (IKCa channel (KCa3.1) [1]) | IC50 [2] | inhibition at 30 µM (IKCa channel (KCa3.1) [3])
1 | CCn1c(=O)[nH]c2cc(Cl)c(Cl)cc21 [DCEBIO, 5,6-dichloro-1-ethyl-1,3-dihydro-2H-benzimidazol-2-one] | 0.121 ± 0.006 open probability (with 3 µM DCEBIO plus 30 µM MDZ) | – | –
2 | Cc1ncc2n1-c1ccc(Cl)cc1C(c1ccccc1F)=NC2 [MDZ, 8-chloro-6-(2-fluorophenyl)-1-methyl-4H-imidazo [1,5-a][1,4] benzodiazepine] | – | 5.87 µM | 85.7 ± 2.5%
